Reference: patent publication US20230135108A1, “C[…] COMPOUNDS AND METHODS OF MAKING SAME” (Canopy Growth Corporation, priority 2020, published 2023)
Counter-ions that a name gives are not always drawn.

Assays:
[1] = Simulated gastric fluid (SGF) assay; type: in vitro ADME; conditions: pH 1.2-1.5, pepsin, 37° C.; for half-life at 10 µM: simulated gastric fluid with pepsin, read-out: half-life in a gastric environment (SGF)
Method: In a microcentrifuge tube, 626.5 μL of a solution containing 1.1× assay buffer (37.6 mM NaCI, pH 1.2-1.5) was diluted with 70 μL of a 10× pepsin solution (80,000 U/mL in milliQ water). […] The sample was incubated under the same conditions. At the specified time points, 150 μL aliquots of the sample were transferred to microcentrifuge tubes containing 24 μL of quenching solution (0.5 M NaHCO3). After vortexing for 5 seconds, 348 μL of protein precipitation solution containing an internal standard (25 μM Glyburide, ACN) was added. The tube was vortexed again for 20 seconds and stored in ice. Finally, the tubes were centrifuged at 5,000×g and 4° C. for 15 min. The percentage remaining CBDA or CBDA-arginine salt, respectively, compared to time zero, was quantified in the supernatant by HPLC/LC-MS or LC-MS/MS.

[2] = Solubility in water (HPLC of filtrate); type: physicochemical; conditions: 50 mg in 8 mL deionized water, 0.45 micron filter, FIG. 7
Method: In a test tube, 50 mg of the respective cannabinoid salt compound was suspended in 8 mL of deionized water and vortexed. The solution was filtered with a syringe equipped with 0.45 micron filter. HPLC was used to determine the quantity of dissolved cannabinoids.

| Compound | half-life at 10 µM [1] | half-life in a gastric environment (SGF) [1] | solubility in water [2] |
| --- | --- | --- | --- |
| C=C(C)[C@@H]1CCC(C)=C[C@H]1c1c(O)cc(CCCCC)c(C(=O)O)c1O [CBDA, cannabidiolic acid] | ~19.7 min |  |  |
| CCCCCc1cc2c(c(O)c1C(=O)O)[C@@H]1C=C(C)CC[C@H]1C(C)(C)O2 [THCA, tetrahydrocannabinolic acid] |  | about 12.2 min | virtually insoluble |
| C1CCC(NC2CCCCC2)CC1.CCCCCc1cc2c(c(O)c1C(=O)O)C1C=C(C)CCC1C(C)(C)O2 (centres unmarked) [THCA-DCHA salt] |  |  | virtually insoluble |
| CCCCCc1cc2c(c(O)c1C(=O)O)[C@@H]1C=C(C)CC[C@H]1C(C)(C)O2 [THCA-arginine salt] | ~14.4 min |  |  |
